The target in experiment [1] is KRAS-G12C/SOS1 (Homo sapiens (Human), UniProt Q07889). The experiment can be described thus: Detection of inhibitory effects of compounds on KRAS-G12C/SOS1 (KRASG12C/SOS binding kit, HTRF). The following applies: Em665/620, read-out: IC50, inhibitory activity on interaction of KRAS-G12C/SOS1. A digest of the protocol: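 HTRF binding of Tag2-KRAS-G12C to Tag1-SOS1 with compounds (10-point 3-fold dilution from 5,000 nM) for 15 min at room temperature, then anti-Tag1-Tb and anti-Tag2-XL665 for 120 min at 4° C. Em665/620 read; inhibition normalised to control wells, IC50 from variable-slope log(inhibitor) fit.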
Sequence of KRAS-G12C/SOS1 (Q07889 whole entry, stated change not applied): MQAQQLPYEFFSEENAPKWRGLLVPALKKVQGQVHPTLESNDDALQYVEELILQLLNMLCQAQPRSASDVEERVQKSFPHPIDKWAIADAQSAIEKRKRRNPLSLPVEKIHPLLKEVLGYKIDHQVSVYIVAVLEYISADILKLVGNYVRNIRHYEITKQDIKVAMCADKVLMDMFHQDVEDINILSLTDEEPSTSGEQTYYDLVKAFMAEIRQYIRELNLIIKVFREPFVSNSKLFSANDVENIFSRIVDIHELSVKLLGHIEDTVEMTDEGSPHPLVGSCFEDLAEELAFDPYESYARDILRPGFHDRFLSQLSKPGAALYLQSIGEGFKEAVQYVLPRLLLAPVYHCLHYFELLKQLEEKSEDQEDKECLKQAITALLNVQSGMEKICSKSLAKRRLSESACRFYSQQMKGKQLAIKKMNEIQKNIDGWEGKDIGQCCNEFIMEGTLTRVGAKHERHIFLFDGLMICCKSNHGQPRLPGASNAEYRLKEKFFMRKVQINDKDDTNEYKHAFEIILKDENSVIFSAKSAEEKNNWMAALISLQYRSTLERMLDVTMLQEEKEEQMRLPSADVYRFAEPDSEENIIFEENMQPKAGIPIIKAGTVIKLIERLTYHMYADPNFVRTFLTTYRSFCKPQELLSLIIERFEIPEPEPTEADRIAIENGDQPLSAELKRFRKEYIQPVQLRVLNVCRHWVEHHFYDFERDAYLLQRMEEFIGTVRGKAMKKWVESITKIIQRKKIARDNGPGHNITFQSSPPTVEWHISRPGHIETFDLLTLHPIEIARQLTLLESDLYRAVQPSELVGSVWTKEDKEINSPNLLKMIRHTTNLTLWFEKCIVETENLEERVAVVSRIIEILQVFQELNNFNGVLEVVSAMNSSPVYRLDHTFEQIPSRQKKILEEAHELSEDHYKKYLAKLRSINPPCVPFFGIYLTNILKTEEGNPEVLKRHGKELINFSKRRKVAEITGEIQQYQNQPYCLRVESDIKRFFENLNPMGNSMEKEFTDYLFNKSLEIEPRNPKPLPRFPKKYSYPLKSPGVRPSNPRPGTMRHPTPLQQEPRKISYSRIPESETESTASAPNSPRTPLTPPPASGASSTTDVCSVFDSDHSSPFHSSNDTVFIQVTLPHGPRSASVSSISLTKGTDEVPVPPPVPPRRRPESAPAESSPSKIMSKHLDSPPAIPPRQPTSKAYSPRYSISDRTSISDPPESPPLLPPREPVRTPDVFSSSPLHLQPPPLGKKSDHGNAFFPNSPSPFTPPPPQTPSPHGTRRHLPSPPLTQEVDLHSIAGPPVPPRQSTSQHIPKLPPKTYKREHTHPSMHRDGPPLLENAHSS
(In general: In TR-FRET formats the signal depends on donor and acceptor labels being close together.)

For experiment [2], the system named is p-ERK of PC-9 cells. The experiment can be described thus: p-ERK HTRF assay in PC-9 cells. The following applies: Homo sapiens, PC-9, 1 h, PC-9 lung cancer cells, 1 hour treatment, read-out: IC50, inhibitory activity on p-ERK of PC-9 cells. The class given is cell-based. Put shortly: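 PC-9 lung cancer cells plated overnight, then exposed 1 h at 37 °C to a 10-point compound series (10,000–[…] nM final, 0.1% DMSO). After 1 h lysis, phospho-ERK1/2 (Thr202/Tyr204) measured by HTRF at 665/615 nm. Percent inhibition calculated from max and min signals.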

For the compound `C[C@@H](Nc1ccnc2cnc(C3(O)CCN(C(=O)c4ccncc4)CC3)cc12)c1cccc(C(F)F)c1F` [Compound B-131], the IC50 is at most 100 nM in experiment [1] and at most 300 nM in experiment [2].
`C[C@@H](Nc1ccnc2cnc(C3(O)CCN(C(=O)C4COC4)CC3)cc12)c1cccc(C(F)F)c1F` [Compound B-132]: the IC50 was at most 100 nM in experiment [1] and at most 300 nM in experiment [2].
On the same counts, the results for `C[C@@H](Nc1ccnc2cnc(C3(O)CCN(C(=O)[C@@H]4CCOC4)CC3)cc12)c1cccc(C(F)F)c1F` [Compound B-133] are at most 100 nM and at most 300 nM.
`C[C@@H](Nc1ccnc2cnc(C3(O)CCN(C(=O)[C@H]4CCOC4)CC3)cc12)c1cccc(C(F)F)c1F` [Compound B-134]: the IC50 in experiment [1] is at most 100 nM; in experiment [2] it was at most 300 nM.
For `C[C@@H](Nc1ccnc2cnc(C3(O)CCN(C(=O)C4CCOCC4)CC3)cc12)c1cccc(C(F)F)c1F` [Compound B-135] the same measures were at most 100 nM and 300 to 1000 nM.
For `C[C@@H](Nc1ccnc2cnc(C3(O)CCN(C(=O)[C@H]4CNCCO4)CC3)cc12)c1cccc(C(F)F)c1F` [Compound B-136] the same measures were at most 100 nM and over 1000 nM.
For `C[C@@H](Nc1ccnc2cnc(C3(O)CCN(C(=O)[C@@H]4CNCCO4)CC3)cc12)c1cccc(C(F)F)c1F` [Compound B-137] the same measures were at most 100 nM and over 1000 nM.
On to `C[C@@H](Nc1ccnc2cnc(C3(O)CCN(C(=O)Cc4cccnc4)CC3)cc12)c1cccc(C(F)F)c1F` [Compound B-138], for which the IC50 in experiment [1] was at most 100 nM; in experiment [2] it was at most 300 nM.
For `C[C@@H](Nc1ccnc2cnc(C3(O)CCN(C(=O)Cc4ccncc4)CC3)cc12)c1cccc(C(F)F)c1F` [Compound B-139] the same measures were at most 100 nM and at most 300 nM.
On the same counts, the results for `C[C@@H](Nc1ccnc2cnc(C3(O)CCN(C(=O)C[C@@H]4CCOC4)CC3)cc12)c1cccc(C(F)F)c1F` [Compound B-140] are at most 100 nM and at most 300 nM.
On the same counts, the results for `C[C@@H](Nc1ccnc2cnc(C3(O)CCN(C(=O)COC(F)F)CC3)cc12)c1cccc(C(F)F)c1F` [Compound B-141] are at most 100 nM and at most 300 nM.
For the compound `C[C@@H](Nc1ccnc2cnc(C3(O)CCN(C(=O)[C@H]4C[C@H](O)CN4)CC3)cc12)c1cccc(C(F)F)c1F` [Compound B-144], the IC50 in experiment [1] was at most 100 nM; in experiment [2], over 1000 nM.
For `C[C@@H](Nc1ccnc2cnc(C3(O)CCN(C(=O)[C@H]4C[C@@H](O)CN4)CC3)cc12)c1cccc(C(F)F)c1F` [Compound B-145] the same measures were at most 100 nM and over 1000 nM.
On the same counts, the results for `C[C@@H](Nc1ccnc2cnc(C3(O)CCN(C(=O)[C@H]4C[C@@H](O)CN4C)CC3)cc12)c1cccc(C(F)F)c1F` [Compound B-147] are at most 100 nM and over 1000 nM.
Consider `C[C@@H](Nc1ccnc2cnc(C3(O)CCN(C(=O)CN4CCOCC4)CC3)cc12)c1cccc(C(F)F)c1F` [Compound B-148], for which the IC50 in experiment [1] was at most 100 nM; in experiment [2], at most 300 nM.
On the same counts, the results for `C[C@@H](Nc1ccnc2cnc(C3(O)CCN(C(=O)CN4CCC(O)CC4)CC3)cc12)c1cccc(C(F)F)c1F` [Compound B-149] are at most 100 nM and over 1000 nM.
On the same counts, the results for `C[C@@H](Nc1ccnc2cnc(C3(O)CCN(C(=O)CN4CC[C@@H](O)C4)CC3)cc12)c1cccc(C(F)F)c1F` [Compound B-150] are at most 100 nM and over 1000 nM.
On to `C[C@@H](Nc1ccnc2cnc(C3(O)CCN(C(=O)CN4CC[C@H](O)C4)CC3)cc12)c1cccc(C(F)F)c1F` [Compound B-151], for which the IC50 is at most 100 nM in experiment [1] and over 1000 nM in experiment [2].
Take `C[C@@H](Nc1ccnc2cnc(C3(O)CCN(C4COCC4O)CC3)cc12)c1cccc(C(F)F)c1F` (stereo partly shown) [Compound B-152]: the figures for the IC50 in experiment [1] and in experiment [2] were at most 100 nM and 300 to 1000 nM, respectively.
As to `Cc1nnc(N2CCC(O)(c3cc4c(N[C@H](C)c5cccc(C(F)F)c5F)ccnc4cn3)CC2)o1` [Compound B-153], the IC50 in experiment [1] was at most 100 nM; in experiment [2] it was 300 to 1000 nM.
For `C[C@@H](Nc1ccnc2cnc(C3(O)CCN(c4ncc(C#N)cn4)CC3)cc12)c1cccc(C(F)F)c1F` [Compound B-156] the same measures were at most 100 nM and at most 300 nM.
In the case of `C[C@@H](Nc1ccnc2cnc(C3(O)CCN(Cc4ccccn4)CC3)cc12)c1cccc(C(F)F)c1F` [Compound B-159], the IC50 in experiment [1] was at most 100 nM; in experiment [2], 300 to 1000 nM.
For `C[C@@H](Nc1ccnc2cnc(C3(O)CCN(C(=O)N(C)C)CC3)cc12)c1cccc(C(F)F)c1F` [Compound B-160] the same measures were at most 100 nM and at most 300 nM.
On the same counts, the results for `C[C@@H](Nc1ccnc2cnc(C3(O)CCN(C(=O)N4CC[C@H](O)C4)CC3)cc12)c1cccc(C(F)F)c1F` [Compound B-161] are at most 100 nM and 300 to 1000 nM.
In the case of `C[C@@H](Nc1ccnc2cnc(C3(O)CCN(C(=O)N4CC[C@@H](O)C4)CC3)cc12)c1cccc(C(F)F)c1F` [Compound B-162], the IC50 was at most 100 nM in experiment [1] and 300 to 1000 nM in experiment [2].
Consider `C[C@@H](Nc1ccnc2cnc(C3(O)CCN(C(=O)NCCO)CC3)cc12)c1cccc(C(F)F)c1F` [Compound B-163], for which the figures for the IC50 in experiment [1] and in experiment [2] were at most 100 nM and at most 300 nM, respectively.
For `C[C@@H](Nc1ccnc2cnc(C3(O)CCN(C(=O)N(C)CCO)CC3)cc12)c1cccc(C(F)F)c1F` [Compound B-164], the values for the IC50 in experiment [1] and in experiment [2] were at most 100 nM and at most 300 nM, respectively.
For `CC(=O)N1C2CCC1CN(c1cc3c(N[C@H](C)c4cccc(C#N)c4F)ccnc3cn1)C2` [Compound B-165] the same measures were at most 100 nM and 300 to 1000 nM.
On the same counts, the results for `C[C@@H](Nc1ccnc2cnc(C3(O)CCN(C(=O)CO)CC3)cc12)c1cccc(C#N)c1F` [Compound B-167] are at most 100 nM and over 1000 nM.
On the same counts, the results for `C[C@@H](Nc1ccnc2cnc(C3(O)CCN(CCO)CC3)cc12)c1cccc(C#N)c1F` [Compound B-168] are 100 to 500 nM and over 1000 nM.
For the compound `CC(=O)N1CCN(c2cc3c(N[C@H](C)c4cccc(C(F)F)c4F)ccnc3c(-c3cnn(C)c3)n2)CC1` [Compound B-169], the IC50 was at most 100 nM in experiment [1] and at most 300 nM in experiment [2].
As to `CC(=O)N1CCC(O)(c2cc3c(N[C@H](C)c4cccc(C(F)F)c4F)ccnc3c(-c3cnn(C)c3)n2)CC1` [Compound B-170], the results for the IC50 in experiment [1] and in experiment [2] were at most 100 nM and at most 300 nM, respectively.
In the case of `C[C@@H](Nc1ccnc2c(-c3cnn(C)c3)nc(C3(O)CCN(C(=O)CO)CC3)cc12)c1cccc(C(F)F)c1F` [Compound B-171], the IC50 in experiment [1] was at most 100 nM; in experiment [2], at most 300 nM.
On the same counts, the results for `C[C@H](O)C(=O)N1CCC(O)(c2cc3c(N[C@H](C)c4cccc(C(F)F)c4F)ccnc3c(-c3cnn(C)c3)n2)CC1` [Compound B-172] are 100 to 500 nM and 300 to 1000 nM.
On the same counts, the results for `COc1nc(C2(O)CCN(C(=O)CO)CC2)cc2c(N[C@H](C)c3cccc(C(F)F)c3F)ccnc12` [Compound B-173] are at most 100 nM and at most 300 nM.
For `COc1nc(C2(O)CCN(C(=O)[C@H](C)O)CC2)cc2c(N[C@H](C)c3cccc(C(F)F)c3F)ccnc12` [Compound B-174] the same measures were 100 to 500 nM and 300 to 1000 nM.
Consider `Cc1nc(C2(O)CCN(C(=O)CO)CC2)cc2c(N[C@H](C)c3cccc(C(F)F)c3F)ccnc12` [Compound B-175], for which the figures for the IC50 in experiment [1] and in experiment [2] were at most 100 nM and at most 300 nM, respectively.
For `Cc1nc(C2(O)CCN(C(=O)[C@H](C)O)CC2)cc2c(N[C@H](C)c3cccc(C(F)F)c3F)ccnc12` [Compound B-176], the IC50 in experiment [1] is at most 100 nM; in experiment [2] it was 300 to 1000 nM.
